From PMC8956739, “A synthetic lipopeptide targeting top-priority multidrug-resistant Gram-negative pathogens” (Nature Communications, 2022)
Values after ≈ are worked out from the molar mass of the structure shown. Values joined by “and” are separate entries in the source; they are usually repeats but may differ in a detail not shown here. Equal values may be shown once. Residues, ends and D or L forms follow the SMILES beside them.

Legend:
[1] = system: K. pneumoniae FADDI-KP032; type: cell-based, Klebsiella pneumoniae; settings: FADDI-KP032
Description: (§1) MICs were determined in cation-adjusted Mueller–Hinton broth (CaMHB) by the broth micro-dilution method against ATCC strains and clinical isolates. MICs in the presence of Survanta® were determined as described above against P. aeruginosa ATCC 27853. In the 100 μL of fresh CaMHB containing polymyxins, 10% Survanta® (v/v, 2.5 mg/mL phospholipids) was added. MICs in the presence and absence of Survanta® were compared to determine the effect of binding to lung surfactant on the antibacterial activity of polymyxins.

[2] = system: K. pneumoniae FADDI-KP065; type: cell-based, Klebsiella pneumoniae; settings: FADDI-KP065
Description: as §1

P. aeruginosa ATCC 27853 [3] = type: cell-based, Pseudomonas aeruginosa
Description: as §1

[4] = system: P. aeruginosa FADDI-PA025; type: cell-based, Pseudomonas aeruginosa; settings: FADDI-PA025
Description: as §1

[5] = system: P. aeruginosa FADDI-PA038; type: cell-based, Pseudomonas aeruginosa; settings: FADDI-PA038
Description: as §1

A. baumannii FADDI-AB034 = type: cell-based, Acinetobacter baumannii; settings: FADDI-AB034
Description: as §1

A. baumannii FADDI-AB030 = type: cell-based, Acinetobacter baumannii; settings: FADDI-AB030
Description: as §1

A. baumannii ATCC 19606 = type: cell-based, Acinetobacter baumannii; settings: ATCC 19606
Description: as §1

P. aeruginosa ATCC 27853 [6] = assay: Neutropenic mouse bloodstream infection model; type: in vivo; settings: single IV dose 4 mg/kg; for Log10 CFU/mL blood at 4 h, Mean / Δlog10 CFU/mL blood (mean) / Log10 CFU/mL blood at 4 h, single mouse: 4 h; for Δlog10 CFU/mL blood (mean): treated minus control, mean of replicates; for Δlog10 CFU/mL blood (mean) / Log10 CFU/mL blood at 4 h, single mouse / Delta Log10 CFU/mL blood at 4 h, single mouse: 4 mg/kg; for Delta Log10 CFU/mL blood at 4 h, single mouse: treated mouse minus mean of vehicle mice
Description: The experimental methodology for the neutropenic mouse bloodstream infection model was described previously. Briefly, 7-week-old female Swiss mice (22–28 g) were rendered neutropenic by intraperitoneal administration of cyclophosphamide, 4 days (150 mg/kg) and 1 day (100 mg/kg) prior to inoculation. Bloodstream infection was established by intravenous administration of a 50 µL bolus of early log-phase bacterial suspension (4 × 10^8 CFU/mL). Lipopeptide solutions were prepared at 1 mg/mL (free base) in sterile saline. At 2 h after inoculation, mice (n = 3) were injected intravenously with lipopeptide solution at 4 mg/kg (free base) or saline control. At 0 and 4 h after administration, blood was collected, diluted serially in sterile saline, and plated on nutrient agar plates. Agar plates were incubated at 37 °C overnight for bacterial colony counting and the bacterial load in the blood (log10 CFU/mL) in each mouse was calculated. In vivo efficacy was calculated as the difference of the log10 CFU/mL blood values between the treated mice and the saline-treated mice at 4 h post dosing (Δlog10 CFU/mL blood = log10 [treated] CFU/mL blood − log10[control] CFU/mL blood).

Swiss mice, kidney = assay: Nephrotoxicity in mice (kidney histopathology); type: in vivo, mouse; settings: for Kidney histopathology (SQS Score): 72 mg/kg/d subcutaneously in six divided doses every 2 h, n = 3; for Kidney histopathology, mice with the SQS score: mouse, in vivo
Description: The experimental methodology has been previously reported by our group. Briefly, individual lipopeptide solutions were prepared in sterile saline (6 mg/mL). Swiss mice (female, 7-week-old, 22–28 g) were subcutaneously administered at 12 mg/kg in, 6 doses every 2 h to reach a total dose of 72 mg/kg (n = 3). For high-dose nephrotoxicity experiments, mice were intraperitoneally administered at 20 or 25 mg/kg, in 6 doses every 2 h to reach a total dose of 120 mg/kg (n = 6) or 150 mg/kg (n = 3). At 20 h after the last dose, the right kidney from each mouse was collected and placed in 10% buffered (pH 7.4) formalin (Sigma-Aldrich, Castle Hill, NSW, Australia). The kidneys were subjected to histological examination at the Australian Phenomics Network-Histopathology and Organ Pathology (University of Melbourne, Parkville, VIC, Australia), who was blind to the treatment groups.

Structure (SMILES)	MIC K. pneumoniae FADDI-KP032 [1] [µg/mL]	MIC K. pneumoniae FADDI-KP065 [2] [µg/mL]	MIC P. aeruginosa ATCC 27853 (P. aeruginosa ATCC 27853 [3]; ATCC 27853) [µg/mL]	MIC P. aeruginosa FADDI-PA025 [4] [µg/mL]	MIC P. aeruginosa FADDI-PA038 [5] [µg/mL]	MIC A. baumannii FADDI-AB034 (A. baumannii FADDI-AB034) [µg/mL]	MIC A. baumannii FADDI-AB030 (A. baumannii FADDI-AB030) [µg/mL]	MIC A. baumannii ATCC 19606 (A. baumannii ATCC 19606) [µg/mL]	Log10 CFU/mL blood at 4 h, Mean (P. aeruginosa ATCC 27853 [6]) [Log10 CFU/mL blood]	Δlog10 CFU/mL blood (mean) (P. aeruginosa ATCC 27853 [6]) [log10 CFU/mL blood]	Log10 CFU/mL blood at 4 h, single mouse (P. aeruginosa ATCC 27853 [6])	Delta Log10 CFU/mL blood at 4 h, single mouse (P. aeruginosa ATCC 27853 [6])	Kidney histopathology (SQS Score) (Swiss mice, kidney)	Kidney histopathology, mice with the SQS score (Swiss mice, kidney)	impact of lung surfactant on MIC (P. aeruginosa ATCC 27853 [3]; 10% Survanta vs none)	MIC, No Survanta (P. aeruginosa ATCC 27853 [3]; ATCC 27853) [µg/mL]
CCCCCCCC(=O)N[C@@H](CCN)C(=O)N[C@H](C(=O)N[C@@H](CCN)C(=O)N[C@H]1CCNC(=O)[C@H]([C@@H](C)O)NC(=O)[C@H](CCN)NC(=O)[C@H](CCN)NC(=O)[C@H](CC(C)C)NC(=O)[C@@H]([C@H](C)O)NC(=O)[C@H](CCN)NC1=O)[C@@H](C)O [Lipopeptide F228] (HELM PEPTIDE1{[CCCCCCCC(=O)[*:2]].[Dab].T.[Dab].[Dab].[Dab].[dT].L.[Dab].[Dab].T}$PEPTIDE1,PEPTIDE1,5:R3-11:R2$$$V2.0)	2 (≈ 1.75 µM)	16 (≈ 14 µM)	0.25 (≈ 0.219 µM)	32 (≈ 28 µM)	32 (≈ 28 µM)	32 (≈ 28 µM)	16 (≈ 14 µM)	>32	4.13	−3.39	3.99 Log10 CFU/mL blood and 4.11 Log10 CFU/mL blood and 4.28 Log10 CFU/mL blood	-3.52 Log10 CFU/mL blood and -3.40 Log10 CFU/mL blood and -3.24 Log10 CFU/mL blood	+1 (SQS + 1 = mild damage (overall score, 1 to <15))	1/3	–	–
CCCCCCCC(=O)N[C@@H](CCN)C(=O)N[C@H](C(=O)N[C@@H](CN)C(=O)N[C@H]1CCNC(=O)[C@H]([C@@H](C)O)NC(=O)[C@H](CCN)NC(=O)[C@H](CCN)NC(=O)[C@H]([C@@H](C)O)NC(=O)[C@@H](CC(C)C)NC(=O)[C@H](CCN)NC1=O)[C@@H](C)O [Lipopeptide F251] (HELM PEPTIDE1{[CCCCCCCC(=O)[*:2]].[Dab].T.[NC[C@H](N[*:1])C(=O)[*:2]].[Dab].[Dab].[dL].T.[Dab].[Dab].T}$PEPTIDE1,PEPTIDE1,5:R3-11:R2$$$V2.0)	<0.125	<0.125	0.5 (≈ 0.443 µM)	8 (≈ 7.08 µM)	0.5 (≈ 0.443 µM)	0.25 (≈ 0.221 µM)	0.25 (≈ 0.221 µM)	0.5 (≈ 0.443 µM)	5.87	−1.57	6.12 Log10 CFU/mL blood and 5.83 Log10 CFU/mL blood and 5.67 Log10 CFU/mL blood	-1.33 Log10 CFU/mL blood and -1.61 Log10 CFU/mL blood and -1.78 Log10 CFU/mL blood	0 (SQS 0 = no significant change (overall score, <1))	3/3	slightly impacted	0.5 (≈ 0.443 µM)
